In the first assay the test system is UWB1 cells. Kind of assay: cells. To be noted: read-out: IC50 (μM) UWB1 cells.
Regarding `C=C1[C@H](O[C@@H]2C[C@@H](c3ccoc3)C(C)=C2I)[C@@H]2OC(=O)[C@]3(C)C=CC(=O)[C@@](C)([C@@H]23)[C@H]1CC(=O)OC` [S-26], the IC50 (usually the concentration that inhibits the measured activity by half) is 0.226 µM. Same read-out and setting: for `CC[Si](CC)(CC)O[C@H]1C(=O)[C@H](CC(=O)OC)[C@@]2(C)C(=O)C=C[C@@]3(C)C(=O)O[C@@H]1[C@H]23` [S-39] the value was 1.18 µM. Turning to `COC(=O)C[C@H]1[C@]2(C)C3=C(C)[C@@H](c4cccc(O[Si](C)(C)C(C)(C)C)c4)C[C@H]3O[C@@H]2[C@@H]2OC(=O)[C@]3(C)C=CC(=O)[C@@]1(C)[C@@H]23` [S-114], the IC50 came out at 0.242 µM. As to `COC(=O)C[C@H]1[C@@H]2CC3=C(C)[C@@H](c4cccc(O[Si](C)(C)C(C)(C)C)c4)C[C@H]3O[C@@H]2[C@@H]2OC(=O)[C@]3(C)C=CC(=O)[C@@]1(C)[C@@H]23` [S-115], the IC50 turned out to be 0.196 µM. Regarding `COC(=O)C[C@H]1[C@@H]2CC3=C(C)[C@@H](c4cccc(O[Si](C)(C)C(C)(C)C)c4)C[C@@H]3O[C@@H]2[C@@H]2OC(=O)[C@]3(C)C=CC(=O)[C@@]1(C)[C@@H]23` [S-116], the IC50 stood at 0.15 µM. For `COC(=O)C[C@H]1[C@]2(C)C3=C(C)[C@H](c4ccc(O[Si](C)(C)C(C)(C)C)cc4)C[C@H]3O[C@@H]2[C@@H]2OC(=O)[C@]3(C)C=CC(=O)[C@@]1(C)[C@@H]23` [S-117], the IC50 is 0.0788 µM. As for `COC(=O)C[C@H]1[C@@H]2CC3=C(C)[C@H](c4ccc(O[Si](C)(C)C(C)(C)C)cc4)C[C@H]3O[C@@H]2[C@@H]2OC(=O)[C@]3(C)C=CC(=O)[C@@]1(C)[C@@H]23` [S-118], the 50% inhibitory concentration (IC50) came to 0.0815 µM. Turning to `COC(=O)C[C@H]1[C@@H]2CC3=C(C)[C@H](c4ccc(O[Si](C)(C)C(C)(C)C)cc4)C[C@@H]3O[C@@H]2[C@@H]2OC(=O)[C@]3(C)C=CC(=O)[C@@]1(C)[C@@H]23` [S-119], the IC50 was determined as 0.188 µM. Turning to `COC(=O)C[C@H]1[C@@H]2CC3=C(C)[C@@H](c4ccc(O[Si](C)(C)C(C)(C)C)cc4)C[C@H]3O[C@@H]2[C@@H]2OC(=O)[C@]3(C)C=CC(=O)[C@@]1(C)[C@@H]23` [S-121], the IC50 was determined as 0.19 µM.

`COC(=O)C[C@H]1[C@@H]2CC3=C(C)[C@@H](c4ccc(O[Si](C)(C)C(C)(C)C)cc4)C[C@@H]3O[C@@H]2[C@@H]2OC(=O)[C@]3(C)C=CC(=O)[C@@]1(C)[C@@H]23` [S-122]: the IC50 stood at 0.0534 µM. Regarding `COC(=O)C[C@H]1[C@@H]2CC3=C(C)[C@H](c4ccccc4O[Si](C)(C)C(C)(C)C)C[C@@H]3O[C@@H]2[C@@H]2OC(=O)[C@]3(C)C=CC(=O)[C@@]1(C)[C@@H]23` [S-127], the IC50 worked out at 0.927 µM. Turning to `COC(=O)C[C@H]1[C@]2(C)C3=C(C)[C@H](c4ccccc4O[Si](C)(C)C(C)(C)C)C[C@H]3O[C@@H]2[C@@H]2OC(=O)[C@]3(C)C=CC(=O)[C@@]1(C)[C@@H]23` [S-128], the IC50 came to 0.0908 µM. Take `COC(=O)C[C@H]1[C@@H]2CC3=C(C)[C@H](c4ccccc4O[Si](C)(C)C(C)(C)C)C[C@H]3O[C@@H]2[C@@H]2OC(=O)[C@]3(C)C=CC(=O)[C@@]1(C)[C@@H]23` [S-129]: the IC50 was 0.163 µM. On to `COC(=O)C[C@H]1[C@]2(C)C3=C(C)[C@H](c4ccc(CO[Si](C)(C)C(C)(C)C)cc4)C[C@H]3O[C@@H]2[C@@H]2OC(=O)[C@]3(C)C=CC(=O)[C@@]1(C)[C@@H]23` [S-146], for which the half-maximal inhibitory concentration (IC50) was determined as 0.18 µM. In the case of `COC(=O)C[C@H]1[C@@H]2CC3=C(C)[C@H](c4ccc(CO[Si](C)(C)C(C)(C)C)cc4)C[C@@H]3O[C@@H]2[C@@H]2OC(=O)[C@]3(C)C=CC(=O)[C@@]1(C)[C@@H]23` [S-147], the IC50 is 0.192 µM.

`COC(=O)C[C@H]1[C@]2(C)C3=C(C)[C@@H](c4ccc(CO[Si](C)(C)C(C)(C)C)cc4)C[C@H]3O[C@@H]2[C@@H]2OC(=O)[C@]3(C)C=CC(=O)[C@@]1(C)[C@@H]23` [S-148]: the IC50 stood at 0.161 µM. On to `COC(=O)C[C@H]1[C@@H]2CC3=C(C)[C@@H](c4ccc(CO[Si](C)(C)C(C)(C)C)cc4)C[C@@H]3O[C@@H]2[C@@H]2OC(=O)[C@]3(C)C=CC(=O)[C@@]1(C)[C@@H]23` [S-149], for which the IC50 was 0.163 µM.

The assay is the same for the next values; noted with them: read-out: IC50 (μM) UWB1 cells, UWB1 cell viability.
For the compound `COC(=O)C[C@H]1[C@]2(C)C3=C(C)[C@H](c4ccc(O)cc4)C[C@H]3O[C@@H]2[C@@H]2OC(=O)[C@]3(C)C=CC(=O)[C@@]1(C)[C@@H]23` [S-123], the IC50 was found to be 0.464 µM. Regarding `COC(=O)C[C@H]1[C@]2(C)C3=C(C)[C@H](c4ccc(OC(=O)C(C)(C)C)cc4)C[C@H]3O[C@@H]2[C@@H]2OC(=O)[C@]3(C)C=CC(=O)[C@@]1(C)[C@@H]23` [S-124], the IC50 was found to be 0.564 µM.

As to `COC(=O)C[C@H]1[C@@H]2CC3=C(C)[C@H](c4ccc(OC(=O)C(C)(C)C)cc4)C[C@@H]3O[C@@H]2[C@@H]2OC(=O)[C@]3(C)C=CC(=O)[C@@]1(C)[C@@H]23` [S-126], the IC50 came to 0.141 µM. On to `COC(=O)C[C@H]1[C@@H]2CC3=C(C)[C@H](c4ccc(OS(=O)(=O)C(F)(F)F)cc4)C[C@@H]3O[C@@H]2[C@@H]2OC(=O)[C@]3(C)C=CC(=O)[C@@]1(C)[C@@H]23` [S-130], for which the IC50 is 0.225 µM. For `COC(=O)C[C@H]1[C@]2(C)C3=C(C)[C@H](C4=CCOC4=O)C[C@H]3O[C@@H]2[C@@H]2OC(=O)[C@]3(C)C=CC(=O)[C@@]1(C)[C@@H]23` [S-131], the IC50 turned out to be 1.18 µM. Consider `COC(=O)C[C@H]1[C@]2(C)C3=C(C)[C@H](c4ccc(-c5cc(C(C)(C)C)cc(C(C)(C)C)c5)cc4)C[C@H]3O[C@@H]2[C@@H]2OC(=O)[C@]3(C)C=CC(=O)[C@@]1(C)[C@@H]23` [S-132], for which the 50% inhibitory concentration (IC50) amounted to 0.142 µM. The same measure, in the same setting: to `COC(=O)C[C@H]1[C@@H]2CC3=C(C)[C@H](c4ccc(-c5cc(C(C)(C)C)cc(C(C)(C)C)c5)cc4)C[C@H]3O[C@@H]2[C@@H]2OC(=O)[C@]3(C)C=CC(=O)[C@@]1(C)[C@@H]23` [S-133] belongs 0.186 µM; to `COC(=O)C[C@H]1[C@@H]2CC3=C(C)[C@H](c4ccc(-c5cc(C(C)(C)C)cc(C(C)(C)C)c5)cc4)C[C@@H]3O[C@@H]2[C@@H]2OC(=O)[C@]3(C)C=CC(=O)[C@@]1(C)[C@@H]23` [S-134], 0.091 µM; to `COC(=O)C[C@H]1[C@]2(C)C3=C(C)[C@@H](c4ccc(-c5cc(C(C)(C)C)cc(C(C)(C)C)c5)cc4)C[C@H]3O[C@@H]2[C@@H]2OC(=O)[C@]3(C)C=CC(=O)[C@@]1(C)[C@@H]23` [S-135], 0.185 µM. In the case of `COC(=O)C[C@H]1[C@@H]2CC3=C(C)[C@@H](c4ccc(-c5cc(C(C)(C)C)cc(C(C)(C)C)c5)cc4)C[C@H]3O[C@@H]2[C@@H]2OC(=O)[C@]3(C)C=CC(=O)[C@@]1(C)[C@@H]23` [S-136], the IC50 turned out to be 0.0934 µM. Same read-out and setting: to `COC(=O)C[C@H]1[C@@H]2CC3=C(C)[C@@H](c4ccc(-c5cc(C(C)(C)C)cc(C(C)(C)C)c5)cc4)C[C@@H]3O[C@@H]2[C@@H]2OC(=O)[C@]3(C)C=CC(=O)[C@@]1(C)[C@@H]23` [S-137] belongs 0.169 µM; to `COC(=O)C[C@H]1[C@@H]2CC3=C(C)[C@@H](c4ccc(OS(=O)(=O)c5c(C)cc(C)cc5C)cc4)C[C@@H]3O[C@@H]2[C@@H]2OC(=O)[C@]3(C)C=CC(=O)[C@@]1(C)[C@@H]23` [S-139], 0.14 µM; to `COC(=O)C[C@H]1[C@@H]2CC3=C(C)[C@@H](c4ccc(OS(=O)(=O)c5ccc(C)cc5)cc4)C[C@@H]3O[C@@H]2[C@@H]2OC(=O)[C@]3(C)C=CC(=O)[C@@]1(C)[C@@H]23` [S-140], 0.119 µM. Turning to `COC(=O)C[C@H]1[C@]2(C)C3=C(C)[C@H](c4ccc(C(C)(C)C)cc4)C[C@H]3O[C@@H]2[C@@H]2OC(=O)[C@]3(C)C=CC(=O)[C@@]1(C)[C@@H]23` [S-141], the IC50 is 0.248 µM. Consider `COC(=O)C[C@H]1[C@@H]2CC3=C(C)[C@H](c4ccc(C(C)(C)C)cc4)C[C@@H]3O[C@@H]2[C@@H]2OC(=O)[C@]3(C)C=CC(=O)[C@@]1(C)[C@@H]23` [S-142], for which the IC50 stood at 0.145 µM. Turning to `COC(=O)C[C@H]1[C@@H]2CC3=C(C)[C@H](c4ccc(C(C)(C)C)cc4)C[C@H]3O[C@@H]2[C@@H]2OC(=O)[C@]3(C)C=CC(=O)[C@@]1(C)[C@@H]23` [S-143], the IC50 was determined as 0.238 µM. Regarding `COC(=O)C[C@H]1[C@@H]2CC3=C(C)[C@@H](c4ccc(C(C)(C)C)cc4)C[C@@H]3O[C@@H]2[C@@H]2OC(=O)[C@]3(C)C=CC(=O)[C@@]1(C)[C@@H]23` [S-144], the IC50 was found to be 0.14 µM. As to `COC(=O)C[C@H]1[C@]2(C)C3=C(C)[C@@H](c4ccc(C(C)(C)C)cc4)C[C@H]3O[C@@H]2[C@@H]2OC(=O)[C@]3(C)C=CC(=O)[C@@]1(C)[C@@H]23` [S-145], the half-maximal inhibitory concentration (IC50) is 0.157 µM. As for `COC(=O)C[C@H]1[C@@H]2CC3=C(C)[C@@H](c4ccc(CO)cc4)C[C@@H]3O[C@@H]2[C@@H]2OC(=O)[C@]3(C)C=CC(=O)[C@@]1(C)[C@@H]23` [S-150], the IC50 is 0.351 µM. `COC(=O)C[C@H]1[C@@H]2CC3=C(C)[C@@H](c4ccc(C=O)cc4)C[C@@H]3O[C@@H]2[C@@H]2OC(=O)[C@]3(C)C=CC(=O)[C@@]1(C)[C@@H]23` [S-151]: the IC50 is 0.766 µM. Take `COC(=O)C[C@H]1[C@@H]2CC3=C(C)[C@@H](c4ccc(C(=O)O)cc4)C[C@@H]3O[C@@H]2[C@@H]2OC(=O)[C@]3(C)C=CC(=O)[C@@]1(C)[C@@H]23` [S-152]: the half-maximal inhibitory concentration (IC50) was found to be 2.88 µM.

Take `COC(=O)C[C@H]1[C@@H]2CC3=C(C)[C@@H](c4ccc(C(=O)NC(C)(C)C)cc4)C[C@@H]3O[C@@H]2[C@@H]2OC(=O)[C@]3(C)C=CC(=O)[C@@]1(C)[C@@H]23` [S-153]: the 50% inhibitory concentration (IC50) turned out to be 0.245 µM. For `CC1=C2[C@@H](C[C@H]1c1ccoc1)O[C@@H]1[C@@H]3OC(=O)[C@]4(C)C=CC(=O)[C@](C)([C@@H](CC(=O)OC(C)(C)C)[C@]21C)[C@@H]34` [S-154], the IC50 turned out to be 0.453 µM. The same measure, in the same setting: for `CC1=C2C[C@@H]3[C@H](O[C@@H]2C[C@H]1c1ccoc1)[C@@H]1OC(=O)[C@]2(C)C=CC(=O)[C@@](C)([C@@H]12)[C@H]3CC(=O)OC(C)(C)C` [S-155] the value was 0.306 µM; for `C=C1[C@H](O)[C@@H]2OC(=O)[C@]3(C)C=CC(=O)[C@@](C)([C@@H]23)[C@H]1CC(=O)OC(C)(C)C` [S-156], 3.65 µM.

For another assay, the system named is PARP1. Briefly: PARP1 trapping activity of nimbolide analogs (FIGS. 19, 20). The class given is cell-based. To be noted: FIGS. 19 and 20.
Take `C=C1[C@H](O[C@@H]2C[C@@H](c3ccoc3)C(C)=C2I)[C@@H]2OC(=O)[C@]3(C)C=CC(=O)[C@@](C)([C@@H]23)[C@H]1CC(=O)OC` [S-26]: the “PARP1 trapping by nimbolide analogs” value was “induce profound PARP1 trapping”. The same measure, in the same setting: to `CC[Si](CC)(CC)O[C@H]1C(=O)[C@H](CC(=O)OC)[C@@]2(C)C(=O)C=C[C@@]3(C)C(=O)O[C@@H]1[C@H]23` [S-39] belongs “induce PARP1 trapping”.
